Reference: patent EP0591378B1, “METHOD OF PREVENTING AND TREATING CHEMOTHERAPY-INDUCED ALOPECIA” (Hairbiotech, Inc., priority 1991, dated 1993)
Where “and” joins values, the source holds several entries; their conditions need not be identical. Identical values can stand only once. Entries after “also recorded” stand apart in the source; their conditions may differ.

Legend:
[1] = system: Cytoxan/Adriamycin-Induced Alopecia; assay: Alopecia induced by Cytoxan/Adriamycin combination in young rats; assay type: in vivo, Sprague Dawley rats
Procedure: Eight 4-day old Sprague Dawley rats were randomized in two groups of 4 rats each. […] Group II received buffer injections and served as controls. One day after stopping EGF or buffer injections all rats received Cytoxan 25 mg/kg i.p. x 1 day and Adriamycin 2.5 mg/kg i.p. x 3 days. In Group II, all rats had 3+ alopecia over head and neck area. In contrast, in Group I one rat had mild alopecia, one rat minimal alopecia, and two rats no detectable alopecia over head and neck. (FIGURE 5).
(§1) Topical Application of 1,25-dihydroxyvitamin D3: • 1,25-Dihydroxyvitamin D3 was dissolved in absolute ethanol and applied topically with an applicator. Control animals were similarly treated with the same amount of ethanol. Animals were then kept individually separated for a period of three hours following which the treated area was carefully washed with soap and water and dried. Treatment was given daily beginning on day 5 after birth and ending on day 10.
(§2) Chemotherapy: • All chemotherapies were given I.P. and started at 11 days of age. CTX, 35 mg/kg, was given for one day only. VP-16, 1.5 mg/kg, was given for three days. For CTX and ADM combination, CTX, 25 mg/kg was given for one day and ADM, 2.5 mg/kg, for three days. At these doses neither CTX nor ADM alone will produce alopecia. Alopecia was recorded on the tenth day from beginning chemotherapy.
A total of 4 experiments were carried out. […]

VP-16-induced alopecia = assay: VP-16 (Etoposide)-induced alopecia in young rats; assay type: in vivo
Procedure: Twelve 7 day old rats were randomized in two groups. Group I was treated daily with buffer 0.1 ml s.c. for four days. The second Group was treated daily with Vitamin D3 50µg s.c. over head for four days. After stopping the buffer or Vitamin D3 treatment, all rats received 1.5 mg/kg i.p. of VP-16 (Etoposide) daily for three days.
as §1
as §2, with “At these doses neither CTX nor ADM alone will produce alopecia.” left out
A total of 4 experiments were carried out. In the first experiment, protection from Cytoxan-induced alopecia was examined. The experimental group was pretreated with 0.2 µg of 1,25-dihydroxyvitamin D, in 0.15 ml of absolute ethanol applied topically over the head and neck and the control group received 0.15 ml of alcohol. […] The second experiment was carried out under similar conditions to examine protection from VP-16-induced alopecia. […] The third experiment was designed to examine protection from alopecia induced by Cytoxan-Adriamycin combination. There were 11 rats in each group. […] In the fourth experiment, protection from VP-16-induced alopecia was similarly examined except that the dose of 1,25-dihydroxyvitamin D3 was reduced to 0.1 µg in 0.1 ml absolute ethanol applied topically over the head area only.
as §1, with “RO 23-7553 (1,25 dihydroxy-16-ene-23-yne-cholecalciferol)” for “Topical Application of 1,25-dihydroxyvitamin D3: • 1,25-Dihydroxyvitamin D3”, “9” for “5”, “14.” for “10.”
On day 15 all animals received VP-16, 1.5 mg/kg i.p., for three days. Alopecia was recorded on day 25.
Thirteen rats were randomized in two groups. Experimental group, 7 rats; control group, 6 rats. The experimental group was pretreated with 1 µg of RO 23-7553 in 0.2 ml absolute ethanol applied topically over the neck and back and the control group received 0.2 ml of absolute ethanol.

Cytoxan-induced alopecia = Cytoxan-induced alopecia in young rats; assay type: in vivo
hair growth [2] = assay: Stimulation of hair regrowth on the shaven back of rats; assay type: in vivo, Sprague Dawley rats
Procedure: The backs of nineteen 25 day old Sprague Dawley rats were shaven and randomized in two groups.
Group I (control 10 rats) received 0.1 ml of ethanol applied topically once daily to the shaven area for 14 days.
Group II (Calcitriol 9 rats) received 50 ng of 1,25-dihydroxyvitamin D3 in 0.1 ml of ethanol applied topically once daily to the shaven area for 14 days.
On day 15 stimulation of hair regrowth was assessed by reshaving an area 6 cm x 6 cm in diameter. The hair was collected and weighed. The difference between two groups was highly statistically significant. P. value 0.003 (see Table III and Figure 11).

hair growth [3] = assay: as above; assay type: in vivo, Sprague Dawley rats; conditions: observation in treated rats during the chemotherapy-induced alopecia studies
[4] = system: EGF receptors on breast cancer cells; conditions: cited from earlier work
[5] = system: EGF receptors on a cell line established from rat calvaria; conditions: cited from earlier work
ARA-C-induced alopecia = ARA-C-induced alopecia in young rats; assay type: in vivo, Sprague Dawley rats; conditions: Alopecic drug Cytarabine (ARA-C) 50 mg/kg i.p. daily for 7 days, 50 µg daily i.p. or s.c. for 4 days prior to chemotherapy, 1 experiment, 8 animals, uniformly observed in all treated animals
Procedure: Sprague Dawley rats were purchased from Charles River Laboratories, Wilmington, MA. Cytosar-U (ARA-C) was from the Upjohn Company, Kalamazoo, MI. Receptor grade EGF from mouse submaxillary glands, human recombinant EGF, dimethyl sulfoxide (DMSO) and Vitamin D3 were purchased from Sigma Chemical Co., St. Louis, MO. aFGF was purchased from AMGEN Corp., Thousand Oaks, CA.
All rats from each experiment were treated with ARA-C 50 mg/kg intraperitoneally (i.p.) daily for 7 days. For subcutaneous (s.c.) injections, EGF and FGF were prepared in PBS 1% BSA. Alopecia was always recorded on day 12 of experiment, and scored as previously described (Hussein et al, Science, 249:1564-1566, 1990; Jimenez et al, FASEB J., 1991).
For topical treatment, murine EGF was prepared as follows: One vial of EGF (100 µg) was dissolved in 0.2 ml of PBS 1% BSA and 0.12 ml of this solution was added to 0.48 of DMSO. Three hours prior to ARA-C injection, 0.1 ml of the EGF-DMSO mixture was applied to each rat over a 1 cm^2 area between the shoulders using a rubber tip applicator. Rats were then kept individually separated for a period of three hours, following which the treated area was carefully washed with soap and water and dried. Treatment was continued for 7 days. […]
Fourteen 7-day old rats were randomized in two groups. […] Alopecia was recorded on day 12 of experiment. […]

## C=C1/C(=C\C=C2/CCC[C@]3(C)[C@@H]([C@H](C)CCCC(C)(C)O)CC[C@@H]23)C[C@@H](O)C[C@@H]1O [1,25-dihydroxyvitamin D3]
[1]; pretreatment 0.2 µg in 0.15 ml absolute ethanol topically over head and neck, CTX 25 mg/kg one day and ADM 2.5 mg/kg three days I.P., 11 rats, all rats
  protection from alopecia induced by Cytoxan-Adriamycin combination: protected
VP-16-induced alopecia; applied topically 0.5 µg daily in 50% ethanol or DMSO
  protection from VP-16-induced alopecia: protected
VP-16-induced alopecia; pretreatment 0.1 µg in 0.1 ml absolute ethanol topically over the head area only, VP-16 1.5 mg/kg I.P. for three days, all rats
  protection from VP-16-induced alopecia: protected primarily at the site of 1,25-dihydroxyvitamin D3 application; also recorded: less generalized and was more limited to the site of application
VP-16-induced alopecia; pretreatment 0.2 µg in 0.15 ml absolute ethanol topically over head and neck, VP-16 1.5 mg/kg I.P. for three days, recorded on tenth day, all rats
  protection from VP-16-induced alopecia: protected; also recorded: not limited to the site of application but involved the entire body
Cytoxan-induced alopecia; pretreatment 0.2 µg in 0.15 ml absolute ethanol topically over head and neck, day 5 to day 10 after birth, CTX 35 mg/kg I.P. one day, recorded on tenth day, all animals
  protection from Cytoxan-induced alopecia: protected
Hair growth [2]; 50 ng in 0.1 ml ethanol topically once daily for 14 days, 9 rats, day 15, P. value 0.003 versus control (113 ± 8)
  Hair Weight, Mean S.E.M.: 164 ± 13 Mg.
Hair growth [2]; 50 ng in 0.1 ml ethanol topically once daily to the shaven area for 14 days, reshaved area 6 cm x 6 cm on day 15, listed as Calcitriol
  Hair Weight (individual rats): 135 Mg. and 202 Mg. and 143 Mg. and 150 Mg. and 253 Mg. and 130 Mg. and 177 Mg. and 140 Mg. and 147 Mg.
Hair growth [3]
  coat of hair and hair length in the treated area: better coat of hair and longer hair in the treated area
[4]
  effect on EGF receptors on breast cancer cells: increase
[5]
  effect on EGF receptors on a cell line established from rat calvaria: increase

## C=C1/C(=C\C=C2/CCC[C@]3(C)C([C@H](C)CC#CC(C)(C)O)=CC[C@@H]23)C[C@@H](O)C[C@@H]1O [RO 23-7553, 1,25 dihydroxy-16-ene-23-yne-cholecalciferol]
VP-16-induced alopecia; pretreatment 1 µg in 0.2 ml absolute ethanol topically over neck and back, day 9 to day 14 after birth, VP-16 1.5 mg/kg i.p. three days from day 15, recorded on day 25, 7 rats, all animals
  protection from VP-16-induced alopecia: protected

## C=C1CC[C@H](O)C/C1=C/C=C1\CCC[C@]2(C)[C@@H]([C@H](C)CCCC(C)C)CC[C@@H]12 [Vitamin D3]
ARA-C-induced alopecia
  Protection from alopecia: excellent protection and Yes*
[1]; Adriamycin 2.5 mg/kg i.p. daily for 3 days plus Cytoxan 25 mg/kg single injection, 50 µg daily i.p. or s.c. for 4 days prior to chemotherapy, 6 experiments, 77 animals, uniformly observed in all treated animals
  Protection from alopecia: excellent protection and Yes*
VP-16-induced alopecia; 50µg s.c. over head daily for four days, then VP-16 1.5 mg/kg i.p. daily for three days, 7 day old rats
  Protection from alopecia: protected
VP-16-induced alopecia; Alopecic drug Etoposide (VP-16) 1.5 mg/kg i.p. daily for 3 days, 50 µg daily i.p. or s.c. for 4 days prior to chemotherapy, 2 experiments, 22 animals, uniformly observed in all treated animals
  Protection from alopecia: excellent protection and Yes*
Cytoxan-induced alopecia; Alopecic drug Cytoxan (CTX) 32.5 mg/kg single injection, 50 µg daily i.p. or s.c. for 4 days prior to chemotherapy, 7 experiments, 89 animals, uniformly observed in all treated animals, 32.5 mg/kg
  Protection from alopecia: excellent protection and Yes*
